Source: paper PMC9330389, “Bambus[4,6]urils as Dual Scaffolds for Multivalent Iminosugar Presentation and Ion Transport: Access to Unprecedented Glycosidase-Directed Anion Caging Agents” (Molecules, 2022)
pKi: −log10 of the molar value. Like-named read-outs stand apart in the source and are kept apart here.

Tests used:
Jack Bean α-mannosidase [1] = biological target: T1, Jack Bean α-mannosidase (Canavalia ensiformis, UniProt C0HJB3); assay: Inhibition assays on Jack-Bean α-mannosidase (p-nitrophenyl-α-D-mannopyranoside hydrolysis, Dixon and Lineweaver–Burk); assay type: biochemical; conditions: for pKi: 0.2 M acetate buffer pH 5, 25-27 °C, for mixed inhibitors the first value of the cell (Ki); for Ki': mixed inhibition, second value of the cell (Ki' in supplement); for Rp (relative potency): rp = Ki (monovalent reference)/Ki (neoglycocluster); for rp/n (relative potency per inhitope): n = number of inhitope units
T1 construct: purchased Sigma Aldrich, St. Louis, MO, USA
T1 sequence (C0HJB3 1-981): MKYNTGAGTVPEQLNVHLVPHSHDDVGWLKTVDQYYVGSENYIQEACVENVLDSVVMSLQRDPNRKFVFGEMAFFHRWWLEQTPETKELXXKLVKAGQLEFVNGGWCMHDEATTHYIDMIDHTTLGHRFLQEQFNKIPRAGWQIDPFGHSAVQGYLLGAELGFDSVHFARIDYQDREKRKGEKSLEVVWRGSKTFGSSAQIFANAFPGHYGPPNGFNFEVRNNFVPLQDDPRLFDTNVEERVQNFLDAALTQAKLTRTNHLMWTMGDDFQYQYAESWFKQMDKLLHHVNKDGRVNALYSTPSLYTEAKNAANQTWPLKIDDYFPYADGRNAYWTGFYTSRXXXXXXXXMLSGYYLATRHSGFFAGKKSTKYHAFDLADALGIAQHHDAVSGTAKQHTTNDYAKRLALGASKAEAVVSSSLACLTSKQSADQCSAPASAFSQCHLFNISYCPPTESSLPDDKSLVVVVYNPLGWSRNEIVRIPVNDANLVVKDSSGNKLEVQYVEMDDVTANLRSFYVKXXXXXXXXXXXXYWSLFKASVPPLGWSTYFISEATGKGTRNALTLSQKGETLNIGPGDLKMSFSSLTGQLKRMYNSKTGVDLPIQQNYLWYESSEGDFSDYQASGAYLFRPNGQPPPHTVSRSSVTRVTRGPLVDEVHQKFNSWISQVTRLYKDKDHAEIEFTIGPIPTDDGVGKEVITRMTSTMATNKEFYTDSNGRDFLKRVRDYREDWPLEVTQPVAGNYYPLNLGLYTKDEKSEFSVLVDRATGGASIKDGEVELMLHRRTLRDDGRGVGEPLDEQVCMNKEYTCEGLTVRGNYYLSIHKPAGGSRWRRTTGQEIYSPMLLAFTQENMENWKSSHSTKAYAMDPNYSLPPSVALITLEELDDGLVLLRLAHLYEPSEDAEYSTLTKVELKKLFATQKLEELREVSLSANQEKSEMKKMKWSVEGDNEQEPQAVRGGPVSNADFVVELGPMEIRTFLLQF
Procedure: p-nitrophenyl-α-D-mannopyranoside and α-mannosidase (EC 3.2.1.24, from Jack Bean) were purchased from Sigma Aldrich, St. Louis, MO, USA. Inhibition constants were determined spectrophotometrically by measuring the residual hydrolytic activities of the α-mannosidase against p-nitrophenyl-α-D-mannopyranoside in the presence and absence of an inhibitor. Each well was filled with a total volume of 100 µL, containing 0.2 M acetate buffer pH 5, inhibitor, substrate and enzyme. All kinetics were performed between 25 °C and 27 °C and started by enzyme addition. After 30–50 min of incubation, the reaction was quenched by addition of 100 µL of 1M Na2CO3. The absorbance of the resulting solution was determined at 405 nm. Ki values were determined in triplicate, using the Dixon and Lineweaver–Burk graphical methods within Microsoft Excel. Stock solutions of inhibitors were prepared with DMSO/buffer for final well DMSO content under 5%. The stability of the enzyme in the presence of the same concentrations of DMSO was controlled and enzyme activity was unaffected.

Jack Bean α-mannosidase [2] = biological target: T1, Jack Bean α-mannosidase; conditions: cited from earlier work

Row | Compound | Inhibition Mode (Jack Bean α-mannosidase [1]) | pKi (Jack Bean α-mannosidase [1]) | Ki' (Jack Bean α-mannosidase [1]) [µM] | Rp (relative potency) (Jack Bean α-mannosidase [1]) | rp/n (relative potency per inhitope) (Jack Bean α-mannosidase [1]) | pKi (Jack Bean α-mannosidase [2]; monovalent C9 reference) | Inhibition Mode (Jack Bean α-mannosidase [2]; monovalent references)
1 | CCCC[N+](CCCC)(CCCC)CCCC.O=C1N(Cc2cn(CCCCCCN3C[C@H](O)[C@@H](O)[C@H](O)[C@H]3CO)nn2)C2C(N1Cc1cn(CCCCCCN3C[C@H](O)[C@@H](O)[C@H](O)[C@H]3CO)nn1)N1CN3C(=O)N(CN4C(=O)N(CN5C(=O)N(CN6C(=O)N(CN7C(=O)N(CN2C1=O)C1C7N(Cc2cn(CCCCCCN7C[C@H](O)[C@@H](O)[C@H](O)[C@H]7CO)nn2)C(=O)N1Cc1cn(CCCCCCN2C[C@H](O)[C@@H](O)[C@H](O)[C@H]2CO)nn1)C1C6N(Cc2cn(CCCCCCN6C[C@H](O)[C@@H](O)[C@H](O)[C@H]6CO)nn2)C(=O)N1Cc1cn(CCCCCCN2C[C@H](O)[C@@H](O)[C@H](O)[C@H]2CO)nn1)C1C5N(Cc2cn(CCCCCCN5C[C@H](O)[C@@H](O)[C@H](O)[C@H]5CO)nn2)C(=O)N1Cc1cn(CCCCCCN2C[C@H](O)[C@@H](O)[C@H](O)[C@H]2CO)nn1)C1C4N(Cc2cn(CCCCCCN4C[C@H](O)[C@@H](O)[C@H](O)[C@H]4CO)nn2)C(=O)N1Cc1cn(CCCCCCN2C[C@H](O)[C@@H](O)[C@H](O)[C@H]2CO)nn1)C1C3N(Cc2cn(CCCCCCN3C[C@H](O)[C@@H](O)[C@H](O)[C@H]3CO)nn2)C(=O)N1Cc1cn(CCCCCCN2C[C@H](O)[C@@H](O)[C@H](O)[C@H]2CO)nn1.[Br-] (stereo partly drawn) [Compound 8, Br^−@(DNJ-C6)12BU[6].TBA^+] | mixed | 4.07 | 191 ± 37 | 3.8 | – | – | –
2 | O=C1N(Cc2cn(CCCCCCCCCN3C[C@H](O)[C@@H](O)[C@H](O)[C@H]3CO)nn2)C2C(N1Cc1cn(CCCCCCCCCN3C[C@H](O)[C@@H](O)[C@H](O)[C@H]3CO)nn1)N1CN3C(=O)N(CN4C(=O)N(CN5C(=O)N(CN6C(=O)N(CN7C(=O)N(CN2C1=O)C1C7N(Cc2cn(CCCCCCCCCN7C[C@H](O)[C@@H](O)[C@H](O)[C@H]7CO)nn2)C(=O)N1Cc1cn(CCCCCCCCCN2C[C@H](O)[C@@H](O)[C@H](O)[C@H]2CO)nn1)C1C6N(Cc2cn(CCCCCCCCCN6C[C@H](O)[C@@H](O)[C@H](O)[C@H]6CO)nn2)C(=O)N1Cc1cn(CCCCCCCCCN2C[C@H](O)[C@@H](O)[C@H](O)[C@H]2CO)nn1)C1C5N(Cc2cn(CCCCCCCCCN5C[C@H](O)[C@@H](O)[C@H](O)[C@H]5CO)nn2)C(=O)N1Cc1cn(CCCCCCCCCN2C[C@H](O)[C@@H](O)[C@H](O)[C@H]2CO)nn1)C1C4N(Cc2cn(CCCCCCCCCN4C[C@H](O)[C@@H](O)[C@H](O)[C@H]4CO)nn2)C(=O)N1Cc1cn(CCCCCCCCCN2C[C@H](O)[C@@H](O)[C@H](O)[C@H]2CO)nn1)C1C3N(Cc2cn(CCCCCCCCCN3C[C@H](O)[C@@H](O)[C@H](O)[C@H]3CO)nn2)C(=O)N1Cc1cn(CCCCCCCCCN2C[C@H](O)[C@@H](O)[C@H](O)[C@H]2CO)nn1 (stereo partly drawn) [Compound 7, (DNJ-C9)12BU[6]] | competitive | 5.97 | – | 177 | 15 | – | –
3 | CCCn1cc(CCCCCCCCCN2C[C@H](O)[C@@H](O)[C@H](O)[C@H]2CO)nn1 [Compound 22] | – | – | – | – | – | 3.73 | competitive
4 | O=C1N(Cc2cn(CCCCCCN3C[C@H](O)[C@@H](O)[C@H](O)[C@H]3CO)nn2)[C@H]2[C@@H](N1Cc1cn(CCCCCCN3C[C@H](O)[C@@H](O)[C@H](O)[C@H]3CO)nn1)N1CN3C(=O)N(CN4C(=O)N(CN5C(=O)N(CN2C1=O)[C@@H]1[C@H]5N(Cc2cn(CCCCCCN5C[C@H](O)[C@@H](O)[C@H](O)[C@H]5CO)nn2)C(=O)N1Cc1cn(CCCCCCN2C[C@H](O)[C@@H](O)[C@H](O)[C@H]2CO)nn1)[C@H]1[C@@H]4N(Cc2cn(CCCCCCN4C[C@H](O)[C@@H](O)[C@H](O)[C@H]4CO)nn2)C(=O)N1Cc1cn(CCCCCCN2C[C@H](O)[C@@H](O)[C@H](O)[C@H]2CO)nn1)[C@@H]1[C@H]3N(Cc2cn(CCCCCCN3C[C@H](O)[C@@H](O)[C@H](O)[C@H]3CO)nn2)C(=O)N1Cc1cn(CCCCCCN2C[C@H](O)[C@@H](O)[C@H](O)[C@H]2CO)nn1 [Compound 3, (DNJ-C6)8BU[4]] | competitive | 5.01 | – | 33 | 4 | – | –

Further compounds by rising pKi (Jack Bean α-mannosidase [1]), results first:

Row | Inhibition Mode (Jack Bean α-mannosidase [1]) | pKi (Jack Bean α-mannosidase [1]) | Ki' (Jack Bean α-mannosidase [1]) [µM] | Rp (relative potency) (Jack Bean α-mannosidase [1]) | rp/n (relative potency per inhitope) (Jack Bean α-mannosidase [1]) | Compound | pKi (Jack Bean α-mannosidase [2]; monovalent C9 reference) | Inhibition Mode (Jack Bean α-mannosidase [2]; monovalent references)
5 | mixed | 3.97 | 162 ± 40 | 3.0 | < 1 | CCCC[N+](CCCC)(CCCC)CCCC.O=C1N(Cc2cn(CCCCCCN3C[C@H](O)[C@@H](O)[C@H](O)[C@H]3CO)nn2)C2C(N1Cc1cn(CCCCCCN3C[C@H](O)[C@@H](O)[C@H](O)[C@H]3CO)nn1)N1CN3C(=O)N(CN4C(=O)N(CN5C(=O)N(CN6C(=O)N(CN7C(=O)N(CN2C1=O)C1C7N(Cc2cn(CCCCCCN7C[C@H](O)[C@@H](O)[C@H](O)[C@H]7CO)nn2)C(=O)N1Cc1cn(CCCCCCN2C[C@H](O)[C@@H](O)[C@H](O)[C@H]2CO)nn1)C1C6N(Cc2cn(CCCCCCN6C[C@H](O)[C@@H](O)[C@H](O)[C@H]6CO)nn2)C(=O)N1Cc1cn(CCCCCCN2C[C@H](O)[C@@H](O)[C@H](O)[C@H]2CO)nn1)C1C5N(Cc2cn(CCCCCCN5C[C@H](O)[C@@H](O)[C@H](O)[C@H]5CO)nn2)C(=O)N1Cc1cn(CCCCCCN2C[C@H](O)[C@@H](O)[C@H](O)[C@H]2CO)nn1)C1C4N(Cc2cn(CCCCCCN4C[C@H](O)[C@@H](O)[C@H](O)[C@H]4CO)nn2)C(=O)N1Cc1cn(CCCCCCN2C[C@H](O)[C@@H](O)[C@H](O)[C@H]2CO)nn1)C1C3N(Cc2cn(CCCCCCN3C[C@H](O)[C@@H](O)[C@H](O)[C@H]3CO)nn2)C(=O)N1Cc1cn(CCCCCCN2C[C@H](O)[C@@H](O)[C@H](O)[C@H]2CO)nn1.[I-] (stereo partly drawn) [Compound 9, I^-@(DNJ-C6)12BU[6].TBA^+] | – | –
6 | competitive | 6.15 | – | 265 | 33 | O=C1N(Cc2cn(CCCCCCCCCN3C[C@H](O)[C@@H](O)[C@H](O)[C@H]3CO)nn2)C2C(N1Cc1cn(CCCCCCCCCN3C[C@H](O)[C@@H](O)[C@H](O)[C@H]3CO)nn1)N1CN3C(=O)N(CN4C(=O)N(CN5C(=O)N(CN2C1=O)C1C5N(Cc2cn(CCCCCCCCCN5C[C@H](O)[C@@H](O)[C@H](O)[C@H]5CO)nn2)C(=O)N1Cc1cn(CCCCCCCCCN2C[C@H](O)[C@@H](O)[C@H](O)[C@H]2CO)nn1)C1C4N(Cc2cn(CCCCCCCCCN4C[C@H](O)[C@@H](O)[C@H](O)[C@H]4CO)nn2)C(=O)N1Cc1cn(CCCCCCCCCN2C[C@H](O)[C@@H](O)[C@H](O)[C@H]2CO)nn1)C1C3N(Cc2cn(CCCCCCCCCN3C[C@H](O)[C@@H](O)[C@H](O)[C@H]3CO)nn2)C(=O)N1Cc1cn(CCCCCCCCCN2C[C@H](O)[C@@H](O)[C@H](O)[C@H]2CO)nn1 (stereo partly drawn) [Compound 4, (DNJ-C9)8BU[4]] | – | –
7 | competitive | 6.31 | – | 385 | 32 | CCCC[N+](CCCC)(CCCC)CCCC.O=C1N(Cc2cn(CCCCCCCCCN3C[C@H](O)[C@@H](O)[C@H](O)[C@H]3CO)nn2)C2C(N1Cc1cn(CCCCCCCCCN3C[C@H](O)[C@@H](O)[C@H](O)[C@H]3CO)nn1)N1CN3C(=O)N(CN4C(=O)N(CN5C(=O)N(CN6C(=O)N(CN7C(=O)N(CN2C1=O)C1C7N(Cc2cn(CCCCCCCCCN7C[C@H](O)[C@@H](O)[C@H](O)[C@H]7CO)nn2)C(=O)N1Cc1cn(CCCCCCCCCN2C[C@H](O)[C@@H](O)[C@H](O)[C@H]2CO)nn1)C1C6N(Cc2cn(CCCCCCCCCN6C[C@H](O)[C@@H](O)[C@H](O)[C@H]6CO)nn2)C(=O)N1Cc1cn(CCCCCCCCCN2C[C@H](O)[C@@H](O)[C@H](O)[C@H]2CO)nn1)C1C5N(Cc2cn(CCCCCCCCCN5C[C@H](O)[C@@H](O)[C@H](O)[C@H]5CO)nn2)C(=O)N1Cc1cn(CCCCCCCCCN2C[C@H](O)[C@@H](O)[C@H](O)[C@H]2CO)nn1)C1C4N(Cc2cn(CCCCCCCCCN4C[C@H](O)[C@@H](O)[C@H](O)[C@H]4CO)nn2)C(=O)N1Cc1cn(CCCCCCCCCN2C[C@H](O)[C@@H](O)[C@H](O)[C@H]2CO)nn1)C1C3N(Cc2cn(CCCCCCCCCN3C[C@H](O)[C@@H](O)[C@H](O)[C@H]3CO)nn2)C(=O)N1Cc1cn(CCCCCCCCCN2C[C@H](O)[C@@H](O)[C@H](O)[C@H]2CO)nn1.[Br-] (stereo partly drawn) [Compound 10, Br^-@(DNJ-C9)12BU[6].TBA^+] | – | –
